# Measured values as given in patent publication US8163727B2, “Biphenyloxyacetic acid derivatives for the treatment of respiratory disease” (AstraZeneca AB, priority 2004, dated 2012).
# Experiments:
# CRTh2 = molecular target: T1, CRTh2 (Homo sapiens, UniProt Q9Y5Y4); assay: Ligand binding assay ([3H]PGD2 SPA on membranes of HEK cells expressing rhCRTh2/Gα16); conditions: [3H]PGD2 displacement, HEK cell membranes containing CRTh2; read-out: pIC50 value (converted)
# T1 construct: expressed in transfected cells; host or cells: HEK cells (membrane preparation)
# T1 sequence (Q9Y5Y4 1-395): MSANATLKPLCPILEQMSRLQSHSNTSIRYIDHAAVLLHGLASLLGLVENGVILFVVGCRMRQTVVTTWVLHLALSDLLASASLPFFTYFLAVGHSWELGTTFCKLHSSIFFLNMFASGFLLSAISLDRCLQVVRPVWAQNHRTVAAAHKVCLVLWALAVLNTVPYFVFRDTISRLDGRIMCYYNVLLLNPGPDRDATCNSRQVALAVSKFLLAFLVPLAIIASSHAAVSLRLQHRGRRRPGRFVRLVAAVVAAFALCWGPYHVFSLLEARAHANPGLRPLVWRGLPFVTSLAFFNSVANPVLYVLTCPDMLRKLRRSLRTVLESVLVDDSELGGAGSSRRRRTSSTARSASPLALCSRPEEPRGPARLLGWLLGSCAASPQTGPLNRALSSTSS
# Description: [^3H]PGD2 was purchased from Perkin Elmer Life Sciences with a specific activity of 100-210 Ci/mmol. All other chemicals were of analytical grade.
# HEK cells expressing rhCRTh2/Gα16 were routinely maintained in DMEM containing 10% Foetal Bovine Serum (HyClone), 1 mg/ml geneticin, 2 mM L-glutamine and 1% non-essential amino acids. For the preparation of membranes, the adherent transfected HEKcells were grown to confluence in two layer tissue culture factories (Fisher, catalogue number TKT-170-070E). Maximal levels of receptor expression were induced by addition of […] sodium butyrate for the last 18 hours of culture. The adherent cells were washed once with phosphate buffered saline (PBS, 50 ml per cell factory) and detached by the addition of 50 ml per cell factory of ice-cold membrane homogenisation buffer [20 mM HEPES (pH 7.4), 0.1 mM dithiothreitol, 1 mM EDTA, 0.1 mM phenyl methyl sulphonyl fluoride and 100 μg/ml bacitracin]. Cells were pelleted by centrifugation at 220×g for 10 minutes at 4° C., re-suspended in half the original volume of fresh membrane homogenisation buffer and disrupted using a Polytron homogeniser for 2×20 second bursts keeping the tube in ice at all times. […] The final pellet was re-suspended in 4 ml of membrane homogenisation buffer per cell factory used and the protein content determined. […]
# All assays were performed in Corning clear bottomed, white 96-well NBS plates (Fisher). […] (The optimum coating concentrations were determined for each batch of membranes) The beads were pelleted by centrifugation (800×g for 7 minutes at 4° C.), washed once with assay buffer (50 mM HEPES pH 7.4 containing 5 mM magnesium chloride) and finally re-suspended in assay buffer at a bead concentration of 10 mg/ml. […]
# Compounds and DK-PGD2 were dissolved in DMSO and diluted in the same solvent to 100× the required final concentration. […] The assay plate was incubated at room temperature for 2 hours and counted on a Wallac Microbeta liquid scintillation counter (1 minute per well).
Compound,IC50 (CRTh2) [nM],melting point [°C]
C[C@H](Oc1ccc(Cl)cc1-c1cc(F)c(S(=O)(=O)N2CCOCC2)cc1F)C(=O)O [Example 5],1.78,
"CC(C)S(=O)(=O)c1ccc(-c2cc(C(F)(F)F)ccc2OCC(=O)O)cc1F [Example 6, [[3′-Fluoro-4′-[(1-methylethyl)sulfonyl]-5-(trifluoromethyl)[1,1′-biphenyl]-2-yl]oxy]acetic acid]",,170 to 171
"CCS(=O)(=O)c1ccc(-c2cc(C(F)(F)F)ccc2OCC(=O)O)cc1C(F)(F)F [Example 9, [[4′-(Ethylsulfonyl)-3′,5-bis(trifluoromethyl)[1,1′-biphenyl]-2-yl]oxy]acetic acid]",,174 to 175
"CCS(=O)(=O)c1ccc(-c2cc(C(F)(F)F)ccc2O[C@@H](C)C(=O)O)cc1C(F)(F)F [Example 10, (2S)-2-[[4′-(Ethylsulfonyl)-3′,5-bis(trifluoromethyl)[1,1′-biphenyl]-2-yl]oxy]propanoic acid]",,124 to 126
O=C(O)COc1ccc(Cl)cc1-c1ccc(S(=O)(=O)N2CCOCC2)c(C(F)(F)F)c1 [Example 11],35.5,208 to 209
"C[C@H](Oc1ccc(Cl)cc1-c1ccc(S(=O)(=O)N2CCOCC2)c(C(F)(F)F)c1)C(=O)O [Example 12, (2S)-2-[[5-Chloro-4′-(4-morpholinylsulfonyl)-3′-(trifluoromethyl)[1,1′-biphenyl]-2-yl]oxy]propanoic acid]",,148 to 149
"O=C(O)COc1ccc(Cl)cc1-c1ccc(C(=O)N2CCCC2)c(C(F)(F)F)c1 [Example 13, [[5-Chloro-4′(1-pyrrolidinylcarbonyl)-3′-(trifluoromethyl)[1,1′-biphenyl]-2-yl]oxy]-acetic acid]",7.08,197 to 198
"C[C@H](Oc1ccc(Cl)cc1-c1ccc(C(=O)N2CCCC2)c(C(F)(F)F)c1)C(=O)O [Example 14, (2S)-2-[[5-Chloro-4′-(1-pyrrolidinylcarbonyl)-3′-(trifluoromethyl)[1,1′-biphenyl]-2-yl]oxy]propanoic acid]",,164 to 165
"C[C@H](Oc1ccc(Cl)cc1-c1ccc(S(C)(=O)=O)c(C(F)(F)F)c1)C(=O)O [Example 16, (2S)-2-[[5-Chloro-4′-(methylsulfonyl)-(3′-trifluoromethyl)-[1,1′-biphenyl]-2-yl]oxy]propanoic acid]",,77 to 79
